Molecular target: Bromodomain-containing protein 4 (Homo sapiens, UniProt O60885)
Experiment: AlphaLISA Assay: Compounds were diluted by step-down dilution method (final concentration of DMSO was 1%) and added to the wells of a 384 well opti plate at desired concentrations. 5 nM BDR4-BD1 enzyme (produced in-house) and 12 nM of biotinylated substrate were added to the wells, covered and incubated at room temperature (RT) for 1 h. At the end of 1 h 250 ng of GSH acceptor beads were added to the well and incubated for 1 h at RT; then 500 ng of streptavidin donor beads were added and incubated again for 1 h at RT. Plates were read in a Pherastar reader at 680 nm excitation and 570 nm emission

How did the IC50 turn out when `CCNC(=O)CC1N=C(c2ccc(Cl)cc2)c2cc(OC)ccc2-c2cn(C)c(=O)cc21` (racemic) was run?
The IC50 was 1.6 nM.
